# Results published in patent US8686146B2, “Azaindenoisoquinoline topoisomerase I inhibitors” (Purdue Research Foundation, priority 2012, dated 2014).
# Structures can show the parent of a compound that is named as a salt. Where two headings read alike, the source gives them in different places.
# Assays:
# SN12C = assay: NCI screen antiproliferative activity, renal SN12C
# Method: (§1) Cells of approximately 60 different human cancer cell lines were incubated for 48 h with five 10-fold dilutions of the tested compounds starting from 100 μM and then treated with sulforhodamine B dye. The ratios of recorded optical densities relative to that of the control were plotted as a function of the common logarithm of the tested compound concentrations. […] The GI50 and the mean graph midpoint (MGM) values of the prepared indenoisoquinolines in selected cell lines are presented in Table I.
# (§2) The antiproliferative activity of each compound was determined in the National Cancer Institute (NCI) screen as described above. Cells of approximately 60 different human cancer cell lines were incubated for 48 h with five 10-fold dilutions of the test compounds starting from 100 μM, and then treated with sulforhodamine B dye. The ratios of recorded optical densities relative to those of the control were plotted as a function of the common logarithm of the tested compound concentrations. […] The GI50 and the mean graph midpoint (MGM) values of the prepared (aza)indeno-isoquinolines in selected cell lines are presented in Table 2.
# HOP-62 = assay: NCI screen antiproliferative activity, lung HOP-62
# Method: as §1, §2
# human recombinant Top1 = target: T1, human recombinant Top1 (Homo sapiens, UniProt P11387); assay: Top1-mediated DNA cleavage assay; format: biochemical; settings: semiquantitative, relative to compounds 1 and 2
# T1 construct: made in house
# T1 sequence (P11387 1-765): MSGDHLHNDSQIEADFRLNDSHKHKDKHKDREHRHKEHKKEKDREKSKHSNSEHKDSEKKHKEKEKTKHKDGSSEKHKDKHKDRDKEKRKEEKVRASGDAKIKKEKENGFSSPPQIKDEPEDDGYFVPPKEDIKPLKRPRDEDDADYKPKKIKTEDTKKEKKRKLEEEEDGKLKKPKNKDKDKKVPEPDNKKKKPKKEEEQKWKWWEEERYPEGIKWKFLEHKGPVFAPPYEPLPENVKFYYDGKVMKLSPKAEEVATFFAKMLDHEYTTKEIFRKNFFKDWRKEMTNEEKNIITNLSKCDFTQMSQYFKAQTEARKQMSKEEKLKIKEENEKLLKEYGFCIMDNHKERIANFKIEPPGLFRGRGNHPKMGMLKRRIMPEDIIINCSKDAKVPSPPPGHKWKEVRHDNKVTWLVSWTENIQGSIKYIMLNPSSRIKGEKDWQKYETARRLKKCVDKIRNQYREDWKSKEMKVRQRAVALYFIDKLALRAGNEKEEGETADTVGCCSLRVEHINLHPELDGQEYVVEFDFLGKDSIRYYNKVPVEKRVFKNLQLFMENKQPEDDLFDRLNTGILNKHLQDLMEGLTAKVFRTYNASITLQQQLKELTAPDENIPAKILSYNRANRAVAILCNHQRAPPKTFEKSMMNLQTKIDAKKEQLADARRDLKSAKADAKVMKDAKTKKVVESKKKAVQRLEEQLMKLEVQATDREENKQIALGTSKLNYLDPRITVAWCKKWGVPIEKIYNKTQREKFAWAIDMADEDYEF
# Method: Unincorporated [^32P]dGTP was removed using mini Quick […] columns (Roche, Indianapolis, Ind.), and the eluate containing the […] DNA substrate was collected. […] Aliquots of each reaction mixture were subjected to 20% denaturing PAGE. […] The DNA fragments were separated on a denaturing gel. […] All of the target compounds were tested for induction of DNA damage in Top1-mediated DNA cleavage assays, as described above.
# SF-539 = assay: NCI screen antiproliferative activity, CNS SF-539
# Method: as §1, §2
# [1] = tested on: approximately 60 different human cancer cell lines; assay: NCI screen, mean graph midpoint over all cell lines; format: cell-based; settings: all human cancer cell lines successfully tested, 48 h
# Method: as §1, §2
# MCF7 = assay: NCI screen antiproliferative activity, breast MCF7
# Method: as §1, §2
# UACC-62 = assay: NCI screen antiproliferative activity, melanoma UACC-62
# Method: as §1, §2
# HCT-116 = assay: NCI screen antiproliferative activity, colon HCT-116
# Method: as §1, §2
# OVCAR-3 = assay: NCI screen antiproliferative activity, ovarian OVCAR-3
# Method: as §1, §2
# DU-145 = assay: NCI screen antiproliferative activity, prostate DU-145
# Method: as §1, §2
Top1 Cleavage (human recombinant Top1; Table 2),Top1 Cleavage (human recombinant Top1; Table 1),SMILES,GI50 (SN12C),GI50 (HOP-62),GI50 (SF-539),MGM (mean graph midpoint for growth inhibition) ([1]; Table 2),GI50 (MCF7),GI50 (UACC-62),GI50 (HCT-116),GI50 (OVCAR-3),GI50 (DU-145),MGM (mean graph midpoint for growth inhibition) ([1]; Table 1),other results
+++,–,"COc1cnc2c(c1)C(=O)c1c-2n(CCCN(C)C)c(=O)c2cc(OC)c(OC)cc12.Cl [Compound 55, 7-Aza-5,6-dihydro-6-(3-dimethylaminopropyl)-2,3,9-trimethoxy-5,11-dioxo-11H-indeno[1,2-c]isoquinoline Hydrochloride]",3600 nM,920 nM,1100 nM,1.8 µM,130 nM,3900 nM,1500 nM,2900 nM,880 nM,–,–
–,+ (+ weak activity;),"Cl.O=C1c2cccnc2-c2c1c1ccccc1c(=O)n2CCCNCCO [Compound 30, 7-Aza-5,6-dihydro-6-(3-(2-hydroxyethylamino)propyl)-5,11-dioxo-11H-indeno[1,2-c]isoquinoline Hydrochloride]",760 nM,1410 nM,870 nM,–,480 nM,3090 nM,300 nM,1550 nM,410 nM,1.29 µM,–
++,–,"COc1cnc2c(c1)C(=O)c1c-2n(CCCN2CCOCC2)c(=O)c2ccccc12 [Compound 64, 7-Aza-5,6-dihydro-6-(3-(4-morpholino)propyl)-9-methoxy-5,11-dioxo-11H-indeno[1,2-c]isoquinoline]",2600 nM,4100 nM,3500 nM,3.0 µM,600 nM,1700 nM,2500 nM,6300 nM,3600 nM,–,–
++,++,"COc1cc2c3c(n(CCCN4CCOCC4)c(=O)c2cc1OC)-c1ncccc1C3=O [Compound 22, 7-Aza-5,6-d hydro-6-(3-morpholinopropyl)-2,3-dimethoxy-5,11-dioxo-11H-indeno[1,2-c]isoquinolineHydrochloride]",520 nM,300 nM,290 nM,0.30 µM,52 nM,–,220 nM,370 nM,310 nM,0.30 µM,–

# Second part, the molecule before the results:
SMILES,Top1 Cleavage (human recombinant Top1; Table 2),Top1 Cleavage (human recombinant Top1; Table 1),GI50 (SN12C),GI50 (HOP-62),GI50 (SF-539),MGM (mean graph midpoint for growth inhibition) ([1]; Table 2),GI50 (MCF7),GI50 (UACC-62),GI50 (HCT-116),GI50 (OVCAR-3),GI50 (DU-145),MGM (mean graph midpoint for growth inhibition) ([1]; Table 1),other results
"COc1cc2c3c(n(CCCN(C)C)c(=O)c2cc1OC)-c1ncccc1C3=O [Compound 19, 7-Aza-5,6-dihydro-6-(3-dimethylaminopropyl)-2,3-dimethoxy-5,11-dioxo-11H-indeno[1,2-c]isoquinoline Hydrochloride]",+++,+++,–,–,–,4.5 µM,–,–,–,–,–,4.50 µM,"GI50 (SN12C; Homo sapiens, SN12C, 48 h, read-out: cytotoxicity (GI50) renal SN12C, 48 h, sulforhodamine B, single determination, Table 1): 3160 nM; GI50 (SN12C; Homo sapiens, SN12C, 48 h, read-out: cytotoxicity (GI50) renal SN12C, 48 h, sulforhodamine B, single determination, Table 2): 3200 nM; GI50 (HOP-62; Homo sapiens, HOP-62, 48 h, read-out: cytotoxicity (GI50) lung HOP-62, 48 h, sulforhodamine B, single determination, Table 1): 3390 nM; GI50 (HOP-62; Homo sapiens, HOP-62, 48 h, read-out: cytotoxicity (GI50) lung HOP-62, 48 h, sulforhodamine B, single determination, Table 2): 3400 nM; GI50 (SF-539; Homo sapiens, 48 h, read-out: cytotoxicity (GI50) CNS SF-539, 48 h, sulforhodamine B, single determination, Table 2): 4100 nM; GI50 (MCF7; Homo sapiens, MCF7, 48 h, read-out: cytotoxicity (GI50) breast MCF7, 48 h, sulforhodamine B, single determination, Table 1): 440 nM; GI50 (UACC-62; Homo sapiens, UACC-62, 48 h, read-out: cytotoxicity (GI50) melanoma UACC-62, 48 h, sulforhodamine B, single determination, Table 1): 13200 nM; GI50 (UACC-62; Homo sapiens, UACC-62, 48 h, read-out: cytotoxicity (GI50) melanoma UACC-62, 48 h, sulforhodamine B, single determination, Table 2): 13000 nM; GI50 (HCT-116; Homo sapiens, HCT-116, 48 h, read-out: cytotoxicity (GI50) colon HCT-116, 48 h, sulforhodamine B, single determination, Table 1): 1580 nM; GI50 (HCT-116; Homo sapiens, HCT-116, 48 h, read-out: cytotoxicity (GI50) colon HCT-116, 48 h, sulforhodamine B, single determination, Table 2): 1600 nM; GI50 (OVCAR-3; Homo sapiens, OVCAR-3, 48 h, read-out: cytotoxicity (GI50) ovarian OVCAR-3, 48 h, sulforhodamine B, single determination, Table 1): 3550 nM; GI50 (OVCAR-3; Homo sapiens, OVCAR-3, 48 h, read-out: cytotoxicity (GI50) ovarian OVCAR-3, 48 h, sulforhodamine B, single determination, Table 2): 3600 nM; GI50 (DU-145; Homo sapiens, DU-145, 48 h, read-out: cytotoxicity (GI50) prostate DU-145, 48 h, sulforhodamine B, single determination, Table 2): 1700 nM"
"COc1cc2c3c(n(CCCN4CCOCC4)c(=O)c2cc1OC)-c1cnccc1C3=O.O=C(O)C(F)(F)F [Compound 118, 8-Aza-5,6-dihydro-6-(3-(4-morpholino)propyl)-2,3-dimethoxy-5,11-dioxo-11H-indeno[1,2-c]isoquinoline Trifluoroacetate]",++,–,16000 nM,6500 nM,40000 nM,16 µM,4100 nM,48000 nM,2500 nM,24000 nM,24000 nM,–,–
"CN(C)CCCn1c2c(c3ccc([N+](=O)[O-])cc3c1=O)C(=O)c1cccnc1-2.Cl [Compound 20, 7-Aza-5,6-dihydro-6-(3-dimethylaminopropyl)-3-nitro-5,11-dioxo-11H-indeno[1,2-c]isoquinoline Hydrochloride]",–,–,1000 nM,2350 nM,2690 nM,–,360 nM,3310 nM,440 nM,2290 nM,930 nM,1.86 µM,–
